Values joined by “and” are separate entries in the source; they are usually repeats but may differ in a detail not shown here. Equal entries are not always repeated.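 Briefly, cells in 96-well plates were exposed to five compound concentrations for 48 h, and endpoints were estimated by linear interpolation. The concentration for 50% growth inhibition is given as GI50. TGI marks complete inhibition of growth.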
Test system: SK-MEL-2 melanoma
Experiment: NCI tumour cell line growth inhibition, 48 h

Compound | TGI | GI50
COc1ccc(Br)c(C(=O)N2CCc3ccccc32)c1N | 84.5 µM | –
Cc1ccc2ccc(-c3ccccc3)c3c2c1C(=O)c1ccccc1C3=O | > 100 µM | –
OCC(O)C(O)C(O)c1nn(-c2ccc(F)cc2)c2nc3cc(Cl)c(Cl)cc3nc12 (configuration not stated) | 39.2 µM | –
NCCCN=c1ccc2c3c1c(O)c1c(O)ccc(=O)c1c3[nH]n2CCNCCO | 8.18 µM and 4.08 µM | 3.28 µM and 1.08 µM
COc1ccc(C2Cc3cc(OC)c(OC)c(OC)c3C2)cc1 (configuration not stated) | > 100 µM | –

Test system: M19-MEL melanoma
Experiment: NCI tumour cell line growth inhibition, 48 h

Compound | TGI
CC1(C)OC(=O)C(=C2CCC(C(=O)Nc3cccc(C(F)(F)F)c3)N2)C(=O)O1 (configuration not stated) | > 100 µM
CN(C)CCN1CCc2c([nH]c3ccccc23)C1c1cccnc1 (configuration not stated) | > 100 µM
CCN(c1ccccc1)[C@H]1C(=O)N(c2ccc([N+](=O)[O-])cc2)[C@H]1c1ccc(OC)cc1 | > 100 µM
COc1ccc(/C=C\c2cc(OC)c(OC)c(OC)c2)cc1 | > 100 µM
C[C@H]1CC[P+](C)(c2ccccc2)C1 (some centres not stated) | > 100 µM
COc1cccc(/C=N\NC(=O)C(C)SC(C)C(=O)N/N=C/c2cccc(OC)c2)c1 (configuration not stated) | > 100 µM
Cc1cc(C)nc(NS(=O)(=O)c2ccc(Nc3c4ccccc4nc4c(C(=O)NCCN(C)C)cccc34)cc2)n1 | 14.9 µM
COc1cc2c(c(OC)c1OC)C(=O)NCCC2 | > 100 µM
Cc1nc2ccccc2c(=O)n1/N=C(\N=Nc1cc(Cl)ccc1Cl)c1ccccc1 | > 100 µM
O=C1CCC(=O)N1Sc1ccccc1 | > 100 µM
O=c1[nH]cnc2n[nH]nc12 | > 79.9 µM
O=C(/C=C/c1ccccc1O)c1ccccc1Cl | > 100 µM
CCCCC1(C(NC(=O)c2ccccc2Cl)c2ccncc2)C(=O)N(c2ccccc2)N(c2ccccc2)C1=O (configuration not stated) | > 100 µM
COc1ccc(/C=N/NS(=O)(=O)c2ccccc2)cc1 | > 100 µM
COc1ccccc1NC(=O)C1=C(C)NC(C)=C(C(=O)Nc2ccccc2OC)C1c1ccco1 | > 100 µM
C1=CC2CCC1CN2CCC1CNc2ccccc21 (configuration not stated) | > 100 µM
Cc1ccc(OC(=O)N2C/C(=C\c3ccccc3)C(=O)/C(=C/c3ccccc3)C2)cc1 | 18.9 µM
O=c1oc2c3ccc4ccccc4c3n(CCN3CCCCC3)c2c2ccccc12 | > 100 µM
Cc1ccc(S(=O)C(C)C(Cl)c2ccccc2)cc1 (configuration not stated) | > 100 µM
CN1CCc2ccccc2C(C(=O)c2ccc3c(c2)OCO3)C1=O (configuration not stated) | > 100 µM
Cc1cc(Cl)ccc1NC(=O)C1C(=O)N(c2ccc(Cl)cc2C)C(=O)/C1=N\NC(N)=S (configuration not stated) | > 100 µM
COc1ccccc1C(=O)N(Cc1ccccc1)c1ccc(Cl)c(C(=O)OC(C)C)c1 | > 100 µM
COc1ccc(Br)c(C(=O)N2CCc3ccccc32)c1N | > 100 µM
Cc1ccc2ccc(-c3ccccc3)c3c2c1C(=O)c1ccccc1C3=O | > 100 µM
OCC(O)C(O)C(O)c1nn(-c2ccc(F)cc2)c2nc3cc(Cl)c(Cl)cc3nc12 (configuration not stated) | 57.8 µM
NCCCN=c1ccc2c3c1c(O)c1c(O)ccc(=O)c1c3[nH]n2CCNCCO | > 250 µM
COc1ccc(C2Cc3cc(OC)c(OC)c(OC)c3C2)cc1 (configuration not stated) | > 100 µM

Test system: T-47D breast
Experiment: NCI tumour cell line growth inhibition, 48 h

Compound | TGI | GI50
Cc1nc2ccccc2c(=O)n1/N=C(\N=Nc1cc(Cl)ccc1Cl)c1ccccc1 | > 100 µM | –
O=c1[nH]cnc2n[nH]nc12 | > 100 µM | 3.49 µM
COc1ccccc1NC(=O)C1=C(C)NC(C)=C(C(=O)Nc2ccccc2OC)C1c1ccco1 | > 100 µM | –
Cc1ccc(OC(=O)N2C/C(=C\c3ccccc3)C(=O)/C(=C/c3ccccc3)C2)cc1 | > 100 µM | –
COc1ccccc1C(=O)N(Cc1ccccc1)c1ccc(Cl)c(C(=O)OC(C)C)c1 | 78.7 µM | –
NCCCN=c1ccc2c3c1c(O)c1c(O)ccc(=O)c1c3[nH]n2CCNCCO | 15.8 µM | –

Test system: HOP-62 NSCLC
Experiment: NCI tumour cell line growth inhibition, 48 h

Compound | TGI | GI50
CC1(C)OC(=O)C(=C2CCC(C(=O)Nc3cccc(C(F)(F)F)c3)N2)C(=O)O1 (configuration not stated) | > 100 µM | –
CN(C)CCN1CCc2c([nH]c3ccccc23)C1c1cccnc1 (configuration not stated) | > 100 µM | –
COc1ccc(/C=C\c2cc(OC)c(OC)c(OC)c2)cc1 | > 100 µM | –
C[C@H]1CC[P+](C)(c2ccccc2)C1 (some centres not stated) | > 100 µM | –
COc1cccc(/C=N\NC(=O)C(C)SC(C)C(=O)N/N=C/c2cccc(OC)c2)c1 (configuration not stated) | 33.1 µM | –
Cc1cc(C)nc(NS(=O)(=O)c2ccc(Nc3c4ccccc4nc4c(C(=O)NCCN(C)C)cccc34)cc2)n1 | 14.5 µM | –
COc1cc2c(c(OC)c1OC)C(=O)NCCC2 | > 100 µM | –
Cc1nc2ccccc2c(=O)n1/N=C(\N=Nc1cc(Cl)ccc1Cl)c1ccccc1 | > 100 µM | –
O=C1CCC(=O)N1Sc1ccccc1 | > 100 µM | –
O=c1[nH]cnc2n[nH]nc12 | > 100 µM | –
O=C(/C=C/c1ccccc1O)c1ccccc1Cl | > 100 µM | –
CCCCC1(C(NC(=O)c2ccccc2Cl)c2ccncc2)C(=O)N(c2ccccc2)N(c2ccccc2)C1=O (configuration not stated) | > 100 µM | –
COc1ccc(/C=N/NS(=O)(=O)c2ccccc2)cc1 | > 100 µM | –
COc1ccccc1NC(=O)C1=C(C)NC(C)=C(C(=O)Nc2ccccc2OC)C1c1ccco1 | 74.6 µM | –
C1=CC2CCC1CN2CCC1CNc2ccccc21 (configuration not stated) | > 100 µM | –
Cc1ccc(OC(=O)N2C/C(=C\c3ccccc3)C(=O)/C(=C/c3ccccc3)C2)cc1 | 38.7 µM | –
O=C1C(=O)C2(CC1S(=O)(=O)c1ccccc1)c1ccccc1-c1ccccc12 (configuration not stated) | 44 µM | –
O=c1oc2c3ccc4ccccc4c3n(CCN3CCCCC3)c2c2ccccc12 | 58.9 µM | –
Cc1ccc(S(=O)C(C)C(Cl)c2ccccc2)cc1 (configuration not stated) | > 100 µM | –
CN1CCc2ccccc2C(C(=O)c2ccc3c(c2)OCO3)C1=O (configuration not stated) | > 100 µM | –
Cc1cc(Cl)ccc1NC(=O)C1C(=O)N(c2ccc(Cl)cc2C)C(=O)/C1=N\NC(N)=S (configuration not stated) | 48.5 µM | –
COc1ccccc1C(=O)N(Cc1ccccc1)c1ccc(Cl)c(C(=O)OC(C)C)c1 | 85.8 µM | –
COc1ccc(Br)c(C(=O)N2CCc3ccccc32)c1N | > 100 µM | –
Cc1ccc2ccc(-c3ccccc3)c3c2c1C(=O)c1ccccc1C3=O | > 100 µM | –
OCC(O)C(O)C(O)c1nn(-c2ccc(F)cc2)c2nc3cc(Cl)c(Cl)cc3nc12 (configuration not stated) | 28.8 µM | –
NCCCN=c1ccc2c3c1c(O)c1c(O)ccc(=O)c1c3[nH]n2CCNCCO | 11.1 µM and 9.68 µM | 0.484 µM
COc1ccc(C2Cc3cc(OC)c(OC)c(OC)c3C2)cc1 (configuration not stated) | > 100 µM | –

Test system: DMS 273 small cell lung
Experiment: NCI tumour cell line growth inhibition, 48 h

Compound | TGI
CC1(C)OC(=O)C(=C2CCC(C(=O)Nc3cccc(C(F)(F)F)c3)N2)C(=O)O1 (configuration not stated) | > 100 µM
CN(C)CCN1CCc2c([nH]c3ccccc23)C1c1cccnc1 (configuration not stated) | > 100 µM
CCN(c1ccccc1)[C@H]1C(=O)N(c2ccc([N+](=O)[O-])cc2)[C@H]1c1ccc(OC)cc1 | > 100 µM
COc1ccc(/C=C\c2cc(OC)c(OC)c(OC)c2)cc1 | > 100 µM

— PubChem BioAssay (NCI)
